Measurements published in ChEMBL document CHEMBL5584286, “Structure Determination of 1,3-Dioxolane-Containing Lipids from the Marine Sponge Leucetta sp. Using Chiral 1H NMR Analysis of Model Systems” (2024).
Calls of active or inactive are those of the source. The calls are words filed in the database; no cut-off is given here.

What follows are compounds tested on Salmonella typhimurium (assay: Antibacterial activity against Salmonella typhimurium KCTC 2515). Conditions: Salmonella enterica.
Type: functional, Salmonella enterica subsp. enterica serovar Typhimurium

Row | Structure (SMILES) | MIC
1 | CCCCCCCC/C=C\C/C=C\CCC[C@H](C)[C@H]1OC[C@H](CO)O1 | > 128 µg/mL
2 | CCCCCCCCCCC/C=C\C=C\C(O)CC[C@H](C)[C@H]1OC[C@H](CO)O1 (stereo not given in full) | > 128 µg/mL

The remaining lines, values ahead:

Row | MIC | Structure (SMILES)
3 | > 128 µg/mL | CCCCCCCCCCC/C=C\CCC[C@H](C)[C@H]1OC[C@H](CO)O1
4 | > 128 µg/mL | CCCCCCCCC/C=C\C/C=C\CCC[C@H](C)[C@H]1OC[C@H](CO)O1
5 | > 128 µg/mL | CCCCCCCCCC/C=C\C/C=C\CCC[C@H](C)[C@H]1OC[C@H](CO)O1

Each compound was assayed on Micrococcus luteus (assay: Antibacterial activity against Micrococcus luteus KCTC 1915). Conditions: not given.
Type: functional

Row | Structure (SMILES) | MIC
6 | CCCCCCCC/C=C\C/C=C\CCC[C@H](C)[C@H]1OC[C@H](CO)O1 | > 128 µg/mL
7 | CCCCCCCCCCC/C=C\C=C\C(O)CC[C@H](C)[C@H]1OC[C@H](CO)O1 (stereo not given in full) | > 128 µg/mL

The remaining lines, values ahead:

Row | MIC | Structure (SMILES)
8 | > 128 µg/mL | CCCCCCCCCCC/C=C\CCC[C@H](C)[C@H]1OC[C@H](CO)O1
9 | > 128 µg/mL | CCCCCCCCC/C=C\C/C=C\CCC[C@H](C)[C@H]1OC[C@H](CO)O1
10 | > 128 µg/mL | CCCCCCCCCC/C=C\C/C=C\CCC[C@H](C)[C@H]1OC[C@H](CO)O1

The compounds below were run on Escherichia coli (assay: Antibacterial activity against Escherichia coli KCTC 2441). Conditions: not given.
Type: functional

Row | Structure (SMILES) | MIC
11 | CCCCCCCC/C=C\C/C=C\CCC[C@H](C)[C@H]1OC[C@H](CO)O1 | > 128 µg/mL
12 | CCCCCCCCCCC/C=C\C=C\C(O)CC[C@H](C)[C@H]1OC[C@H](CO)O1 (stereo not given in full) | > 128 µg/mL

More lines, now with the values ahead:

Row | MIC | Structure (SMILES)
13 | > 128 µg/mL | CCCCCCCCCCC/C=C\CCC[C@H](C)[C@H]1OC[C@H](CO)O1
14 | > 128 µg/mL | CCCCCCCCC/C=C\C/C=C\CCC[C@H](C)[C@H]1OC[C@H](CO)O1
15 | > 128 µg/mL | CCCCCCCCCC/C=C\C/C=C\CCC[C@H](C)[C@H]1OC[C@H](CO)O1

Each compound was assayed on RAW264.7 (assay: Antiinflammatory activity in mouse RAW264.7 cells). Conditions: not given.
Type: functional, cell-based

Row | Structure (SMILES) | Activity
16 | CCCCCCCC/C=C\C/C=C\CCC[C@H](C)[C@H]1OC[C@H](CO)O1 | inactive
17 | CCCCCCCCCCC/C=C\C=C\C(O)CC[C@H](C)[C@H]1OC[C@H](CO)O1 (stereo not given in full) | inactive
18 | CCCCCCCCCCC/C=C\CCC[C@H](C)[C@H]1OC[C@H](CO)O1 | inactive
19 | CCCCCCCCC/C=C\C/C=C\CCC[C@H](C)[C@H]1OC[C@H](CO)O1 | inactive
20 | CCCCCCCCCC/C=C\C/C=C\CCC[C@H](C)[C@H]1OC[C@H](CO)O1 | inactive

What follows are compounds tested on Bacillus subtilis (assay: Antibacterial activity against Bacillus subtilis KCTC 1021). Conditions: not given.
Type: functional

Row | Structure (SMILES) | MIC
21 | CCCCCCCC/C=C\C/C=C\CCC[C@H](C)[C@H]1OC[C@H](CO)O1 | > 128 µg/mL
22 | CCCCCCCCCCC/C=C\C=C\C(O)CC[C@H](C)[C@H]1OC[C@H](CO)O1 (stereo not given in full) | > 128 µg/mL

Second part, the compound after the results:

Row | MIC | Structure (SMILES)
23 | > 128 µg/mL | CCCCCCCCCCC/C=C\CCC[C@H](C)[C@H]1OC[C@H](CO)O1
24 | > 128 µg/mL | CCCCCCCCC/C=C\C/C=C\CCC[C@H](C)[C@H]1OC[C@H](CO)O1
25 | > 128 µg/mL | CCCCCCCCCC/C=C\C/C=C\CCC[C@H](C)[C@H]1OC[C@H](CO)O1

What follows are compounds tested on Klebsiella pneumoniae (assay: Antibacterial activity against Klebsiella pneumoniae KCTC 2690). Conditions: not given.
Type: functional

Row | Structure (SMILES) | MIC
26 | CCCCCCCC/C=C\C/C=C\CCC[C@H](C)[C@H]1OC[C@H](CO)O1 | > 128 µg/mL
27 | CCCCCCCCCCC/C=C\C=C\C(O)CC[C@H](C)[C@H]1OC[C@H](CO)O1 (stereo not given in full) | > 128 µg/mL

Continued, values first:

Row | MIC | Structure (SMILES)
28 | > 128 µg/mL | CCCCCCCCCCC/C=C\CCC[C@H](C)[C@H]1OC[C@H](CO)O1
29 | > 128 µg/mL | CCCCCCCCC/C=C\C/C=C\CCC[C@H](C)[C@H]1OC[C@H](CO)O1
30 | > 128 µg/mL | CCCCCCCCCC/C=C\C/C=C\CCC[C@H](C)[C@H]1OC[C@H](CO)O1

What follows are compounds tested on Staphylococcus aureus (assay: Antibacterial activity against Staphylococcus aureus KCTC 1927). Conditions: not given.
Type: functional

Row | Structure (SMILES) | MIC
31 | CCCCCCCC/C=C\C/C=C\CCC[C@H](C)[C@H]1OC[C@H](CO)O1 | > 128 µg/mL
32 | CCCCCCCCCCC/C=C\C=C\C(O)CC[C@H](C)[C@H]1OC[C@H](CO)O1 (stereo not given in full) | > 128 µg/mL

More lines, now with the values ahead:

Row | MIC | Structure (SMILES)
33 | > 128 µg/mL | CCCCCCCCCCC/C=C\CCC[C@H](C)[C@H]1OC[C@H](CO)O1
34 | > 128 µg/mL | CCCCCCCCC/C=C\C/C=C\CCC[C@H](C)[C@H]1OC[C@H](CO)O1
35 | > 128 µg/mL | CCCCCCCCCC/C=C\C/C=C\CCC[C@H](C)[C@H]1OC[C@H](CO)O1
